One series concerns Per2:luc U2OS cells. The experiment in a line: Real-time monitoring of circadian oscillation in lumicycle, Per2:luc U2OS cells. The class given is cell-based, human. The protocol: Cell culture, drug treatment and Real-Time Monitoring of Circadian Oscillations: Per2-Luc reporter U2OS cells (D15) and Bmal1-Luc reporter U2OS cells (C26) cells were kept in DMEM medium (Gibco), supplemented with 10% FBS (Gibco) and 1% penicillin streptomycin mixture (Gibco). For Circadian Oscillation monitored with lumicycle (Actimetrics), cells were seeded at the density of 10^6 per 3.5 cm dish (Z688851-30EA). The medium was changed into XM medium (PH7.2, 10 mM HEPES, 350 mg/I bicarbonate, 1×B27, 100 IU/ml penicillin, 100 μg/ml streptomycin, 10 μg/ml gentamycin, and 100 μM d-Luciferin) 2 days after cell seeding. 3.5 cm dish was then sealed with high-vacuum grease (Dow Corning) and microscope cover glass, and transferred into lumicycle which was placed in an incubator (37° C.). For Drug treatment, 3.5 cm dish was taken out from lumicycle quickly at indicated time. After chemical was added into the medium, the dish was sealed again and put back into lumicycle. For Circadian Oscillation monitored with Tecan (Perkinelmer), cells were seeded at the density of […] per well for 384-well plate (CLS3610-48EA). 2 days later, the medium was changed into premixed XM medium with different chemicals with or without pentostatin (5 μg/ml). The plate was then sealing with sealing film (Sangon Biotech) and put into Tecan. Data from cells were collected in the Tecan luminometer at 37° C. for 5˜7 days.
The inventors conducted a chemical screen using the human osteosarcoma U2OS cell line so as to discover small molecules that modify the phase of the intracellular clock in mammals. In the primary screen, the inventors used two reporter lines of U2OS harboring a luciferase gene under control of either Per2 or Bmal1 promoter (named Per2-dLuc or Bmal1-dLuc cells), and set the threshold for at least 6 h phase-changes with no apparent amplitude-reduction in both cell lines. […] An institutional pilot chemical library consisting of approximately 10,000 small molecules was applied in this study. […] The inventors set to allow a free-run of the clock before administration of the compound over the course in order to eliminate the possibility that this phase-changing phenomenon was due to a combinative phenotype of medium-change plus the compound effect.
Circadian clock is a transcriptional based feedback loop, however different clock genes contain different cis-element and may show different response to the same stimulation. […] Since the close similar structure with adenosine and potential function of inhibiting transcription by preventing mRNA elongation, we tested whether adenosine and other deoxynucleoside could shift circadian phase. […] Therefore we further tested whether cordycepin utilize adenosine transporter to enter cell or utilize adenosine deaminase to degrade.
One prominent character of zeitgeiber is phase dependent function. Therefore, we further tested whether cordycepin also has the character.

For a further series, the system named is Per2::Luc. The experiment in a line: In-vivo imaging of luciferase signal in Per2::Luc knockin mice. On the set-up: species or system mouse. As for the experimental part:
Drug injection and in-vivo imaging analysis: mPer2Luciferase knockin mice were housed in Germ Free Animal Facility, under 12 h light/dark photoperiod, with food and water ad libitum. 8 week-old male mPer2Luciferase knockin mice were intraperitoneal injection with 15 mg/kg bw CA03 or DMSO. CA03 was firstly dissolved in DMSO to the concentration of 200 μg/μl, then dilute with saline to the final concentration of 1000 μg/ml for intraperitoneal injection. 1 h later, d-luciferin (Gold Bio.) was intraperitoneally injected. Relative luciferase activity were imaged on IVIS Lumina III system and analysed with in-vivo imaging software (PerkinElmer). […]
Next, the inventors sought to determine whether the clock effects of cordycepin can be recaptured in vivo. […] This observation is especially true when nascent RNA levels were measured, highlighting the first-order, inductive response in E-box genes as previously proposed(FIG. 2B).
To test whether cordycepin function in vivo, we firstly tested luciferase signal level by live imaging of Per2:LUC mice after intraperitoneal injection of 15 mg/kg cordycepin or DMSO. […] Prior evaluation the jet-leg cure ability of cordycepin, we detected whether cordycepin and it's prodrug pro-CA03 can penetrate BBB. We injected cordycepin or pro-CA03 via tail vein and time course sampled CSF and analyzed cordycepin pro-CA03 level with HPLC-MASS method. […]

The subject of another series is core clock genes. The experiment in a line: qPCR of pre-mRNA of core clock genes in liver. The series is classed as in vivo, mouse. Conditions: 15 mg/kg, 1 h after treatment. As for the experimental part: Total RNA Extraction and pre-mRNA Analysis: Total RNA from liver was extracted 1 h after treatment of either DMSO or 15 mg/kg bw with QIAGEN Rneasy Mini Kit (74104, Qiagen), then digested with RNase-Free DNase Set (79254, Qiagen) to remove DNA residual. 500 ng total was reverse transcripted into cDNA with PrimeScript™ RT Master Mix (Takara, RR036A). To compare pre-mRNA levels, equal amount of cDNA RNA from DMSO and CA03 treated samples were analyzed using SYBR Green Master Mix (Kapa Biosystems, KP-KK4601) on a BioRad CFX96 instrument. Each gene was analyzed with multiple primers across the whole gene, and the amplification products were either intronic or across an intron-exon junction. Only primers with good melt-curve were used. For quantification, gene expression in DMSO treated sample was used as control, the relative genes expression in CA03 treated sample calculated by the comparative Ct Method.
Next, the inventors sought to determine whether the clock effects of cordycepin can be recaptured in vivo. […] Mice were intraperitoneally (i.p.) injected with the cordycepin at ZT4 (ZT, zeitgeber time; ZT0 starts light-on, and ZT12 begins light-off). […] This observation is especially true when nascent RNA levels were measured, highlighting the first-order, inductive response in E-box genes as previously proposed(FIG. 2B). […]
In general terms: In qPCR the cycle at which signal appears reflects the starting amount.

A short description of series [1]: Cordycepin concentration in CSF after intraperitoneal injection. The series is classed as in vivo. From the text:
We measured the cordycepin concentration in cerebrospinal fluid (CSF) after the intraperitoneal (I.P.) injection.

This note sets out measurements from patent US12667584B2, “Adenosine analog and its use in regulating the circadian clock” (NATIONAL INSTITUTE OF BIOLOGICAL SCIENCES, BEIJING, priority 2017, dated 2026).

Take `Nc1ncnc2c1ncn2[C@@H]1O[C@H](CO)C[C@H]1O` [Cordycepin, 3′-deoxy-adenosine]: the phase shift in the series with Per2:luc U2OS cells (100 μM applied at CT10) was 12 h; in the series on Per2:luc U2OS cells (100 μM applied at CT 20) it was roughly 0 h. Also, the Per2-dLuc phase shift was 12 h in the series on Per2:luc U2OS cells (applied at Per2 peak, 100 μM) and 0 h in the series with Per2:luc U2OS cells (applied at Per2 trough). In addition, the “amplitude of Per2-dLuc” value in the series with Per2:luc U2OS cells (applied at Per2 trough) is recorded as “increase the amplitude”. Besides, the “increase of luciferase signal in liver compared with DMSO control” value in the series on Per2::Luc (15 mg/kg intraperitoneal) is “more than 4 folds”. For the same molecule, the “time to induction of luciferase signal after drug administration” value in the series with Per2::Luc (i.p. at ZT4) is listed as no more than 1 h. For the same molecule, the “E-box gene transcription (pre-mRNA, liver)” value with core clock genes is reported as “activate”. Moreover, in the series with core clock genes, the “RRE gene and internal control gene transcription (pre-mRNA, liver)” value is on record as “repress”. Also, in series [1], the “time of detection in the CSF after the injection” value is on record as no more than 15 min.
